Target: hSLC13A5 (Homo sapiens, UniProt Q86YT5)
Test: Recombinant hSLC13A5/14C-citrate uptake assay
Assay type: cell-based
Conditions: HEK293 Flp-In cells over-expressing hSLC13A5; WGA-PVT SPA beads; 14C-citrate approx. 2 μM; 4 h
Text: (5) Recombinant hSLC13A5/^14C-Citrate Uptake Assay
The human embryonic kidney 293 (HEK 293)-Flp-In cells (293Flp-In-hSLC13A5) over-expressing hSLC13A5 transporter were cloned: The originating plasmid pcDNA3.1-hSLC13A5 containing hSLC13A5 was synthesized at GeneArt. The cDNA for hSLC13A5 was taken from this plasmid by means of PCR amplification using primers with added HindIII (N-terminal) and XhoI (C-terminal) restriction sites and sub-cloned in frame into pcDNA5/FRT from Invitrogen using the respective restriction enzymes. HEK293 Flp-In cells from Invitrogen were stably co-transfected using the pcDNA/FRT-hSLC13A5 plasmid as well as the pOG44 plasmid.
HEK 293-Flp-In cells are used that stably over-express hSLC13A5 transporter which is responsible for the uptake of citrate into these cells.
The uptake of ^14C-citrate into the 293Flp-In-hSLC13A5 cells is monitored using the WGA-PVT SPA (wheat germ agglutinin-polyvinyltoluene scintillation proximity assay) beads that bind to the 293Flp-In cells due to their WGA-PVT surface. This assay format is based on the imported radioactive citrate brought into proximity with the SPA beads by virtue of the biological processes within the cells. The radioactive decay is converted into a light signal that can be measured using e.g. the TopCount plate reader.
Method: ^14C-Citrate Uptake Assay
Test Compound Dilutions (2Fold-Concentrated):
Starting from 10 mM stock solutions in 100% DMSO, compounds are diluted in pure DMSO using the appropriate dilution steps.
Prior to the uptake assay, 200 μL assay medium (lx HBSS (with Ca^2+ and Mg^2+, w/o Phenolred), contains 5.56 mM D(+)-Glucose)+19.44 mM D(+)-Glucose (final concentration of D(+)-Glucose is 25 mM))+4.8 μL compound solution (or pure DMSO for non-inhibited control wells) are mixed (final DMSO concentration in the assay: 1% (v/v)).
After preparing the 2fold-concentrated test compound dilutions, 50 μL are pipetted to each well of white OptiPlates-96 and incubated at 37° C. in an incubator.
^14C-Citrate Working Solution (Volumes Required Per 96-Well):
The 293Flp-In-hSLC13A5 cells are cultivated in cell culture medium (DMEM+10% fetal calf serum+100 μg/mL Hygromycin B). The medium of the confluent cultures is discarded and the cells are washed with DPBS (w/o Mg^2+ w/o Ca^2+). The cells are detached by the addition of 2.0 mL Accumax per 75 cm^2 culture flask for up to 3 minutes at 37° C. and resuspended in 10 mL assay medium. After cell counting, 50,000 cells/well are administered in a volume of 50 μL into the white OptiPlates-96 containing the respective test compound concentrations. Following a 20 min incubation at 37° C. in the cell culture incubator, 20 μL of ^14C-citrate working solution is added to each well (final volume per well: 120 μL; final ^14C-citrate concentration: approx. 2 μM/well).
After incubation for 4 h at 37° C. in a humid cell culture incubator and the addition of 30 μL of WGA-PVT SPA beads to each well (0.25 mg/well), the plates are sealed on the top using a transparent plastic foil. Incubate the plates for 1 h by room temperature and gentle shaking.
After incubation, the plate is placed into the TopCount NXT HTS and the signal is recorded.
The performance of the test compounds is calculated as follows:
Wells containing cells incubated with 1% DMSO only deliver values for the non-inhibited ^14C-citrate uptake into 293Flp-In-hSLC13A5 cells (100% CTL). Wells containing cells which have received 30 mM non-labelled potassium citrate solution in addition to the ^14C-citrate working solution deliver values for the background (0% CTL).
The IC50 values of the compounds are calculated in IDBS XLfit by sigmoidal dose-response (variable slope).

hSLC13A5, sequence (Q86YT5 whole entry): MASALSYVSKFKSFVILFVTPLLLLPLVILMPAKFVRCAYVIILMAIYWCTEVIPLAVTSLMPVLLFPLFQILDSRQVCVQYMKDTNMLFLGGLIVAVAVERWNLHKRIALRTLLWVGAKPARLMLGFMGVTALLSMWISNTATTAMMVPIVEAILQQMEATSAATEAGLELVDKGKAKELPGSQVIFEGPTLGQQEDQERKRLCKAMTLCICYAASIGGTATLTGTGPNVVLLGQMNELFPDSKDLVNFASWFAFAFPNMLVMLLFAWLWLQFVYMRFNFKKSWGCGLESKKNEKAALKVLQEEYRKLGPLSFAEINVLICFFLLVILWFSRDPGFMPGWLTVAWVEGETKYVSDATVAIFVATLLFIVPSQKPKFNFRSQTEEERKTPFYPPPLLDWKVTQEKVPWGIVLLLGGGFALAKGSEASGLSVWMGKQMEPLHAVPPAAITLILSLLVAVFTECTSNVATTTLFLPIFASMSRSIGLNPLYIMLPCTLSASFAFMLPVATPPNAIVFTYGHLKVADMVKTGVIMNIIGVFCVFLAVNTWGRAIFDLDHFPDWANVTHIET

Compound	IC50
Cc1cc(Br)cc(S(=O)(=O)N2CCC(C(=O)NCc3ccccn3)CC2)c1 [(I-61)]	437 nM
O=C(NCc1ccccn1)C1CCN(S(=O)(=O)c2cc(Cl)cc(Cl)c2)CC1 [(I-11)]	687 nM
O=C(NCc1ccc(F)cc1)C1CCN(S(=O)(=O)c2cc(Cl)cc(Cl)c2)CC1 [(I-10)]	56 nM
Cc1ccc(CNC(=O)C2CCN(S(=O)(=O)c3cc(Cl)cc(Cl)c3)CC2)nc1 [(I-15)]	193 nM
CCOc1cc(Cl)cc(S(=O)(=O)N2CCC(C(=O)NCc3nccs3)CC2)c1 [(I-49)]	154 nM
N#Cc1ccc(CNC(=O)C2CCN(S(=O)(=O)c3cc(Cl)cc(Cl)c3)CC2)cc1 [Example (I-1)]	79 nM
O=C(NCc1ccccc1F)C1CCN(S(=O)(=O)c2cc(Cl)cc(Cl)c2)CC1 [(I-2)]	87 nM
O=C(NCc1ccc(Cl)cc1)C1CCN(S(=O)(=O)c2cc(Cl)cc(Cl)c2)CC1 [(I-5)]	56 nM
O=C(NCc1ccc(F)cn1)C1CCN(S(=O)(=O)c2cc(Cl)cc(Cl)c2)CC1 [(I-20)]	392 nM
Cc1cnc(CNC(=O)C2CCN(S(=O)(=O)c3cc(Cl)cc(Cl)c3)CC2)s1 [(I-27)]	341 nM
